Measured values taken from patent US12578343B2, “Selective ACKR3 modulators and uses thereof” (Luxembourg Institute of Health (LIH), priority 2019, dated 2026).

Key:
smNPCs = test: Uptake of labelled dynorphin A (1-13) by smNPCs, imaging flow cytometry; format: cell-based, human; details: 3 μM, 15 minutes pre-treatment
Protocol: U87 cells derived from human brain glioblastoma were obtained through the NIH AIDS Reagent Program from Dr. Deng and Dr. Littman. U87 stably expressing ACKR3 and CXCR4 were generated as previously described in Szpakowska, M. et al. Different contributions of chemokine N-terminal features attest to a different ligand binding mode and a bias towards activation of ACKR3/CXCR7 compared with CXCR4 and CXCR3. Br J Pharmacol 175, 1419-1438 (2018). U87 cells were grown in Dulbecco's modified Eagle medium (DMEM) supplemented with 15% foetal bovine serum and penicillin/streptomycin (100 Units/ml and 100 μg/ml). U87-ACKR3 and U87-CXCR4 were maintained under puromycin (1 μg/ml) selective pressure. smNPCs (small molecule neural precursor cells) derived from a healthy donor (C1-1) whose informed consent was obtained, were grown on Geltrex™-coated surface in N2B27 medium supplemented with 0.5 μM Purmorphamine, 3 μM CHIR 99021 and 150 μM ascorbic acid. N2B27 medium consisted of DMEM/F12 and NeuroBasal medium 50:50 with 0.5% N2 supplement, 1% B27 supplement lacking vitamin A, 1% GlutaMAX and 1% penicilin/streptomycin. Medium was renewed every other day.
Cells were distributed into 96-well plates (2×10^5 cells/well in Opti-MEM for U87 and U87-ACKR3 and 3×10^5 cells/well in N2B27 medium for smNPCs). […] For comparison of labelled opioid peptide-uptake by ACKR3 or classical opioid receptors, 1.2×10^6 U87 cells were seeded in 10-cm dishes and transfected 48 hours later with 4 μg pcDNA3.1 plasmid encoding ACKR3 or KOR, MOR or NOP. 48 hours post transfection, cells were harvested and treated as described above. Dead cells were excluded using Zombie NIR or Zombie Green viability dye (BioLegend) for FAM-labelled peptides and Cy5-labelled peptides, respectively. Images of 1×10^4 in-focus, living single cells were acquired with an ImageStream MKII imaging flow cytometer (Amnis) using 40× magnification (60× magnification for smNPCs). Samples were analysed using Ideas6.2 software. The number of spots per cell was determined using a mask-based software wizard.

KOR = KOR (Homo sapiens, UniProt P41145); test: β-arrestin-1 recruitment to KOR (NanoBiT, U87 cells); format: cell-based; parameters: expressed in transfected cells; host or cells: U87 cells, transient co-transfection of pNBe vectors; details: concentrations as high as 3 μM
KOR, sequence (P41145 whole entry, the tested form may be a part): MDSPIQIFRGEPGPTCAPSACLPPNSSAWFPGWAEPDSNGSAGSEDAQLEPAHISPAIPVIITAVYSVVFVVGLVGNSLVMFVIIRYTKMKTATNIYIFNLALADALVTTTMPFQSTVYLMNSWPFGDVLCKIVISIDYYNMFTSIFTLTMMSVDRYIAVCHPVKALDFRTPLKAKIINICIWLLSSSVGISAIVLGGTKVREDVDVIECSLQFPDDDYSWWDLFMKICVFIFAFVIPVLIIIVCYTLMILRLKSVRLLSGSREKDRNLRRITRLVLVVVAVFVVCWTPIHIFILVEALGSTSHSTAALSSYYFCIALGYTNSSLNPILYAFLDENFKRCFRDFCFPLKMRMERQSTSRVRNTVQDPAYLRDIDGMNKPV
Protocol: In brief, 1.2×10^6 U87 cells were plated in 10 cm-culture dishes and 48 hours later co-transfected with pNBe vectors encoding GPCRs C-terminally tagged to SmBiT and human β-arrestin-1 or -2 or mini G proteins (mG, engineered GTPase domains of Gα subunits,) N-terminally fused to LgBiT. 48 hours post-transfection cells were harvested, incubated 25 minutes at 37° C. with Nano-Glo Live Cell substrate diluted 200-fold and distributed into white 96-well plates (5×10^4 cells per well). Ligand-induced, β-arrestin and mG recruitment to GPCRs was evaluated with a Mithras LB940 luminometer (Berthold Technologies) for 20 minutes. For concentration-response curves, the signal recorded with a saturating concentration of full agonist for each receptor was set as 100%.

ACKR3 [1] = target: T1, ACKR3 (Homo sapiens, UniProt P25106); format: cell-based; parameters: expressed in transfected cells; host or cells: U87 cells, transient co-transfection of pNBe vectors
Target sequence in this assay (P25106 whole entry): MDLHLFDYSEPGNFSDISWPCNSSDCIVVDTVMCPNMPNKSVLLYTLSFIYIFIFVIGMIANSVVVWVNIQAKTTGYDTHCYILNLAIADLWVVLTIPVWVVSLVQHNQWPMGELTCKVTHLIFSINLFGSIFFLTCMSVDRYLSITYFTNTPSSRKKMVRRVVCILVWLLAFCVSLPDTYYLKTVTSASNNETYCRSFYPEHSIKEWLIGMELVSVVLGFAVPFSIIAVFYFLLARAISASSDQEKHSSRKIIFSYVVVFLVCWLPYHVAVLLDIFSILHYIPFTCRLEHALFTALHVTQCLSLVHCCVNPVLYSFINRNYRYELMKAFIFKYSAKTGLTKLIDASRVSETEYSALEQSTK
Target sequence in this assay (P49407 whole entry partner): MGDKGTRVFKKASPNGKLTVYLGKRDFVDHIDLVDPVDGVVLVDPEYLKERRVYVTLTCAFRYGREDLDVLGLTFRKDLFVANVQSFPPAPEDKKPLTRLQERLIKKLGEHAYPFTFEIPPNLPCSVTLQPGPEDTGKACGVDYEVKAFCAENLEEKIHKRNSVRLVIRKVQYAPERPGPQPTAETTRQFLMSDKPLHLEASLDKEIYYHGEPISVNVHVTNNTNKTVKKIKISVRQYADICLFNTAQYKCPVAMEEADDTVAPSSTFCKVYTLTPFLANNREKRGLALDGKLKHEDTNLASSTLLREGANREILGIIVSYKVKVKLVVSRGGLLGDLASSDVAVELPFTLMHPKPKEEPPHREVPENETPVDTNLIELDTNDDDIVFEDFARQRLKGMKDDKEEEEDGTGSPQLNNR

ACKR3 [2] = target: T1, ACKR3; test: Binding competition with Alexa Fluor 647-labelled CXCL12 on U87-ACKR3 cells, flow cytometry; parameters: expressed in transfected cells; for the receptor comparison in the uptake assay, transient pcDNA3.1); details: 5 nM CXCL12-AF647, U87-ACKR3 cells
Protocol: 1.3. Binding Competition Assays
U87-ACKR3 cells were distributed into 96-well plates (1.5×10^5 cells per well) and incubated with a mixture of 5 nM CXCL12-AF647 and unlabelled chemokines or opioid peptides at indicated concentrations for 90 minutes on ice, then washed twice with FACS buffer (PBS, 1% BSA, 0.1% NaN3) at 4° C. Dead cells were excluded using Zombie Green viability dye (BioLegend). ACKR3-negative U87 cells were used to evaluate non-specific binding of CXCL12-AF647. […] The signal obtained for CXCL12-AF647 in the absence of unlabelled chemokines was used to define 100% binding. Ligand binding was quantified by mean fluorescence intensity on a BD FACS Fortessa cytometer (BD Biosciences).
Target sequence in this assay (P25106 whole entry): as the sequence (P25106 whole entry) above

ACKR3 [3] = target: T1, ACKR3; test: Uptake of fluorescently labelled opioid peptides by ACKR3-expressing U87 cells, imaging flow cytometry; format: cell-based; parameters: expressed in transfected cells; for the receptor comparison in the uptake assay, transient pcDNA3.1); details: saturating concentration of LIH383 (3 μM)
Target sequence in this assay (P25106 whole entry): as above
Excerpt: Visualization of Fluorescently Labelled Opioid Peptides Uptake by Imagestream

Q: For CSCC[C@H](NC(=O)[C@H](Cc1ccccc1)NC(=O)CNC(=O)CNC(=O)[C@@H](N)Cc1ccccc1)C(=O)N[C@@H](CCCNC(=N)N)C(=O)N[C@@H](CCCNC(=N)N)C(=O)N[C@@H](CCCCN)C(N)=O [LIH383], which “effect of pretreatment on uptake of labelled dynorphin A (1-13) by smNPCs” value (smNPCs) is on record?
A: significantly reduced

Q: What about the “activation or inhibition of KOR” value (KOR) of the same compound?
A: no activation or inhibition

Q: And the “EC50 (range in words)” value (ACKR3 [1])?
A: subnanomolar range

Q: What about the “potency relative to known ACKR3 agonists such as compound 18” value (ACKR3 [1]) of the same compound?
A: 20 times

Q: What about the “competition with CXCL12-AF647 for ACKR3 binding” value (ACKR3 [2]) of the same compound?
A: low nanomolar concentrations

Q: What about the “dynorphin A-FAM uptake by U87-ACKR3 cells compared to U87-ACKR3 cells pre-incubated with LIH383” value (ACKR3 [3]) of the same compound?
A: notably higher number of distinguishable vesicle-like structures and mean fluorescent intensity
